Measurements: US5340788A, “Diphenylsulfone derivatives and heat sensitive recording materials” (Nippon Soda Co., Ltd., priority 1990, dated 1994)

Tests used:
[1] = Deposited materials observed after incubation in Ames test; type: physicochemical; details: both conditions of metabolic activation and inactivation
Procedure: (§1) Mutagenic activity of the compound No. 1 in the invention and 4,4'-diglycidyldiphenylsulfone was evaluated by Ames test for using Salmonela strains (TA-100 and TA-1535) and E. coli (WP2uvrA) under conditions of metabolic activation and metabolic inactivation. The metabolic activation system was consisted of supernatant of 9000 G in centrifugation from rat liver homogenate (S9) mixture which was induced by 5,6-benzoflavone or phenobar bital, and a coenzyme. Both test compounds were prepared at concentration of 50 mg/mL by using dimethylformamide. Then, they were successively diluted to prepare lower concentration solutions by the same solvent. The concentration of each test substance is adjusted to be 128, 320, 800, 2000 and 5000 μg/plate. The test mixture of the bacteria, each test substance and sodium phosphate buffer solution (S9 mixture under the metabolic activation condition) was incubated at 37° C. for 20 minutes. After the incubation the mixture was added by soft agar solution containing minimum nutrients, homogeneously inoculated on an agar plate and incubated at 37° C. for 65 hours. […] It was concluded from the results that the compound No 1. was not mutagenic, but 4,4'-diglycidyldiphenylsulfone was mutagen.

[2] = Stability of background to heat and humidity (heat sensitive recording paper, Macbeth Reflection Densitometer); details: reflection density, filter #106; for Stability of Background to heat and humidity, After exposing: after 50° C. under 80% humidity; for Stability of Background to heat and humidity, Before exposing: before 50° C., 80% humidity
Excerpt: (§2) Example 4 (Preparation of Heat Sensitive Recording Paper)
(§3) A compound in the invention (or a reference compound)
(§4) Each above mixture was sufficiently homogenized by sand grinder to prepare Liquid A, B or C. One weight part of Liquid A, 2 weight parts of Liquid B and 1 weight part of Liquid C. were mixed to prepare a dispersion liquid to tint. The liquid was coated on white paper by applying Wire Rod No. 12, then dried to manufacture the heat sensitive recording paper.
(§5) In the preparation of Liquid C in Example 4, instead of the compound in the invention, 4-glycidyloxy-4'-isoprpoxydiphenylsulfone was taken place, the other components were same as Example 4 and the heat sensitive recording paper was similarly prepared.
(§6) A part of the heat sensitive recording papers which were prepared according to the Example 4 and the Comparative examples were heated from both sides to develop color at 150° C. by dry-heating tester (Kishino Science machinery Co.). Then, after they were placed in Incubator Controlled Humidity and Temperature at 50° C. under 80% humidity and in Fademeter (Type FAL-5, Suga Tester Co.) exposing for 3 hours, the stability of backgrounds, of the color images and anti-photo stability were determined by Macbeth Reflection Densitometer (Type RD-514, Ratten #106).

[3] = tested on: Salmonela strains (TA-100 and TA-1535) and E. coli (WP2uvrA); assay: Mutagenic activity, Ames test; type: cell-based; details: for increase of recovery mutation colony: 128-5000 μg/plate, metabolic activation (S9) and inactivation, all strains; for mutagenicity (conclusion of Ames test): with and without metabolic activation
Procedure: as §1

[4] = Photostability of developed image (Fademeter, Macbeth Reflection Densitometer); details: reflection density, filter #106; for Photostability of developed image, After exposing: after Fademeter exposing for 3 hours; for Photostability of developed image, Before exposing: color developed at 150° C., before Fademeter
Excerpt: as §2, §3, §4, §5, §6

Stability of Background to heat and humidity, After exposing [2] | Stability of Background to heat and humidity, Before exposing [2] | Photostability of developed image, After exposing [4] | Photostability of developed image, Before exposing [4] | SMILES | concentration above which deposited materials were observed [1] | increase of recovery mutation colony [3] | mutagenicity (conclusion of Ames test) ([3]; listed as compound No. 1) | mutagenicity (conclusion of Ames test) [3] | mutagenicity (conclusion of Ames test) ([3]; listed as 4,4'-diglycidyldiphenylsulfone)
0.07 | 0.06 | 1.13 | 1.21 | CC1(COc2ccc(S(=O)(=O)c3ccc(OCc4ccccc4)cc3)cc2)CO1 (stereo not drawn) [compound (1), 4-benzyloxy-4'-(2-methylglycidyloxy)diphenylsulfone] | > 800 μg/plate | No increase of recovery mutation colony was observed in any strain | not mutagenic |  | 
0.11 | 0.07 | 1.15 | 1.23 | O=S(=O)(c1ccc(OCc2ccc(Cl)cc2)cc1)c1ccc(OCC2CO2)cc1 (stereo not drawn) [(2)] |  |  |  |  | 
0.12 | 0.09 | 1.16 | 1.22 | Cc1ccc(COc2ccc(S(=O)(=O)c3ccc(OCC4(C)CO4)cc3)cc2)cc1 (stereo not drawn) [(6)] |  |  |  |  | 
0.09 | 0.07 | 1.14 | 1.23 | CC1(COc2ccc(S(=O)(=O)c3ccc(OCc4ccc(Cl)cc4)cc3)cc2)CO1 (stereo not drawn) [(4)] |  |  |  |  | 
0.10 | 0.08 | 1.09 | 1.22 | CC1(COc2ccc(S(=O)(=O)c3ccc(OCc4ccccc4Cl)cc3)cc2)CO1 (stereo not drawn) [(3)] |  |  |  |  | 

The next lines start with the compound.

SMILES | Stability of Background to heat and humidity, After exposing [2] | Stability of Background to heat and humidity, Before exposing [2] | Photostability of developed image, After exposing [4] | Photostability of developed image, Before exposing [4] | concentration above which deposited materials were observed [1] | increase of recovery mutation colony [3] | mutagenicity (conclusion of Ames test) ([3]; listed as compound No. 1) | mutagenicity (conclusion of Ames test) [3] | mutagenicity (conclusion of Ames test) ([3]; listed as 4,4'-diglycidyldiphenylsulfone)
C=CCOc1ccc(S(=O)(=O)c2ccc(OCC3CO3)cc2)cc1 (stereo not drawn) [(7)] | 0.07 | 0.07 | 1.12 | 1.21 |  |  |  |  | 
CC(C)Oc1ccc(S(=O)(=O)c2ccc(OCC3CO3)cc2)cc1 (stereo not drawn) [compound 1, 4-glycidyloxy-4'-isoprpoxydiphenylsulfone, reference compound] | 0.17 | 0.07 | 1.00 | 1.19 |  |  |  |  | 
Cc1ccc(COc2ccc(S(=O)(=O)c3ccc(OCC4CO4)cc3)cc2)cc1 (stereo not drawn) [compound (5), 4-(4-methylbenzyloxy)-4'-glycidyloxydiphenylsulfone] | 0.10 | 0.08 | 1.12 | 1.20 |  |  |  |  | 
O=S(=O)(c1ccc(OCC2CO2)cc1)c1ccc(OCC2CO2)cc1 (stereo not drawn) [4,4'-diglycidyloxydiphenylsulfone, reference compound] |  |  |  |  | 320-800 μg/plate | increases of recovery mutation colony were in all strains |  | mutagenic | mutagen
